Experiments:
[1] = biological target: Transcriptional enhancer factor TEF-4 (Homo sapiens, UniProt Q15562)
Description: Binding affinity to human recombinant N-terminal His-tagged TEAD2 (residues 209 to 424) expressed in Escherichia coli BL21 (DE3) assessed as dissociation constant

[2] = biological target: Transcriptional enhancer factor TEF-1 (Homo sapiens, UniProt P28347)
Description: Binding affinity to human recombinant N-terminal His-tagged TEAD1 (residues 209 to 424) expressed in Escherichia coli BL21 (DE3) assessed as dissociation constant

[3] = biological target: T1, Pantothenate synthetase (Mycobacterium tuberculosis, UniProt P9WIL5); test: Inhibition of Mycobacterium tuberculosis H37Ra pantothenate synthetase
T1 sequence (P9WIL5 whole entry): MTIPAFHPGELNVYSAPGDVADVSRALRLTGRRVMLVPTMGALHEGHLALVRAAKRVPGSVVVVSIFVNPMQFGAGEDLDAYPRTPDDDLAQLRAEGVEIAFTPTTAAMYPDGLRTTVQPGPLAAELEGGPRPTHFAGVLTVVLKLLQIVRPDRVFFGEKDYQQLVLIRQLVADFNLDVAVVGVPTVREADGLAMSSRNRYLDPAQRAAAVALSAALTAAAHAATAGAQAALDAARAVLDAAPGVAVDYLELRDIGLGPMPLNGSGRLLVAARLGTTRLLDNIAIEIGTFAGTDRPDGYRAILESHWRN

[4] = biological target: Interleukin-1 beta (Homo sapiens, UniProt P01584); test: Binding affinity to Interleukin-1beta (unknown origin) assessed as dissociation constant
Chain of Interleukin-1 beta (P01584 117-269 limits assumed): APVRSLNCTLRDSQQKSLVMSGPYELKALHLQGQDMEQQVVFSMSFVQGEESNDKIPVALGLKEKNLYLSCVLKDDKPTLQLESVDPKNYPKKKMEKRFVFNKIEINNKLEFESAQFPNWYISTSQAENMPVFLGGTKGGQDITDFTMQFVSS

[5] = biological target: Replicase polyprotein 1ab (Severe acute respiratory syndrome coronavirus 2, UniProt P0DTD1)
Description: Binding affinity to SARS-CoV-2 Main protease assessed as dissociation constant by SPR analysis

Chain of Transcriptional enhancer factor TEF-1 (P28347 whole entry): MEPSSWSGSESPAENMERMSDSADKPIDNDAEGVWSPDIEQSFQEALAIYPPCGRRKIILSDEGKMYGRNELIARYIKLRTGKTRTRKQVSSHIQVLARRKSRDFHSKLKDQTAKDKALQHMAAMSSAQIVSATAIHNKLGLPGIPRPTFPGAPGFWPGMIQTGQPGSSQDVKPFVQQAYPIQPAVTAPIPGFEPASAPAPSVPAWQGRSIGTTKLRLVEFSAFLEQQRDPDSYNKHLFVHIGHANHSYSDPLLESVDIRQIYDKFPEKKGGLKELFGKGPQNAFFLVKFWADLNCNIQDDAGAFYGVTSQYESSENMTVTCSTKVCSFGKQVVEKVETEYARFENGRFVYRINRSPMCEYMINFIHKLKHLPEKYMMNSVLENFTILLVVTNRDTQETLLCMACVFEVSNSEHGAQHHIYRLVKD
Chain of Transcriptional enhancer factor TEF-4 (Q15562 whole entry): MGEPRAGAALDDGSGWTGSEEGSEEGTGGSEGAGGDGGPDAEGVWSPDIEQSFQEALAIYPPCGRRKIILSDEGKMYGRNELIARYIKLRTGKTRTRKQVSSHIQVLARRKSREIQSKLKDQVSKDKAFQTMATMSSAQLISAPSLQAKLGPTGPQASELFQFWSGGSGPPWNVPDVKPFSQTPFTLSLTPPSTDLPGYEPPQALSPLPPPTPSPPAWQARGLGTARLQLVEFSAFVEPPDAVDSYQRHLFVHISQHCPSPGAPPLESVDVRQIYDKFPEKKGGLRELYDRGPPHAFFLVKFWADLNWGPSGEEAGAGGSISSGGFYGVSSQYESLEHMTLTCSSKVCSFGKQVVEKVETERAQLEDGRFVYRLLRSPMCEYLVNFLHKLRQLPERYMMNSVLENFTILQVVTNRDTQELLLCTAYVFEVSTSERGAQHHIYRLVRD

O=C(O)c1ccccc1Nc1cccc(C(F)(F)F)c1 [FLUFENAMIC ACID]
Kd [1]: 73000 nM

C=C(F)C(=O)N1C[C@@H](n2cc(-c3cccnc3)nn2)[C@H](OCc2ccc(C(F)(F)F)cc2)C1
Kd [2]: 170 nM

N#Cc1c(N)ncnc1-c1cnn(Cc2ccc(F)c(F)c2)c1
IC50 [3]: 150 nM

O=C(O)c1cc(NCc2ccccc2OCCOCCOCCOc2ccccc2CNc2cc(C(=O)O)cc(-c3ccnc4ccccc34)c2)cc(-c2ccnc3ccccc23)c1
Kd [4]: 40 nM

O=C1N[C@@H](Cc2ccccc2)C(=O)N1c1cncc(F)c1
Kd [5]: 23000 nM

N#Cc1cncnc1N
IC50 [3]: 340 nM
